Results reported in publication PMC9606102, “[^89Zr]Zr-PSMA-617 PET/CT in biochemical recurrence of prostate cancer: first clinical experience from a pilot study including biodistribution and dose estimates” (European Journal of Nuclear Medicine and Molecular Imaging, 2022).
Values joined by “and” are separate entries in the source; they are usually repeats but may differ in a detail not shown here. Equal entries are not always repeated.

Tests used:
[1] = test system: prostate cancer lesions; assay: [^89Zr]Zr-PSMA-617 PET/CT tumor lesion detection and uptake in biochemical recurrence; format: in vivo, human (patients)
Protocol: Three patients had undetermined findings on [^68Ga]Ga-PSMA-11 PET/CT with no definite assignment to pathological or physiological uptake, e.g., faintly accumulating or unusually located tracer uptake. The time interval between both, [^89Zr]Zr-PSMA-617 and [^68Ga]Ga-PSMA-11 PET/CT, was 31 ± 18 days (range 5–49 days), with no treatment performed in between. Prostate-specific antigen (PSA) serum level at time of imaging ranged from 0.43 to 1.92 ng/ml. All patients were initially treated with radical prostatectomy (RP). Initial Gleason score ranged from 7a to 9. Four patients underwent salvage treatments such as androgen-deprivation therapy (ADT), lymphadenectomy (LA) or radiation therapy (RT). Detailed patient characteristics including age, Gleason score, primary therapy, salvage therapies, time from initial diagnosis (ID) of prostate cancer, PSA and PSA doubling time (DT) are presented in Table 1. [^89Zr]Zr-PSMA-617 PET/CT imaging was performed on a compassionate use basis under the German Pharmaceutical Act §13 (2b). The medical indication for the examination and the labeling of the tracer were under the direct responsibility of the applying physician. Patients gave their written consent after being thoroughly informed about the general risks of both radiation exposure and application of a novel PET tracer including possible adverse effects of, e.g., therapeutic PSMA tracers. Furthermore, all patients agreed to the publication of the resulting data in accordance with the Declaration of Helsinki.
(§1) Each patient underwent PET/CT imaging scans at 4 time points: 1 h, 24 h, 48 h, and 72 h post intravenous injection (p.i.) of 111 ± 11 MBq (mean ± standard deviation, range 97–129 MBq) [^89Zr]Zr-PSMA-617. All PET/CT imaging was performed on a Biograph mCT 40 scanner (Siemens Medical Solutions, Knoxville, TN, USA) comprising whole-body PET/CT scans extending from vertex to mid-femur in 3D mode. PET acquisition time duration was 4 min per bed position on the initial day of injection and extended up to 10 min on the last day. CT data were acquired in low-dose technique using an X-ray tube voltage of […] and a modulation of the tube current (CARE Dose4D, Siemens Erlangen; maximal tube current 30 mA) followed by reconstruction with a soft tissue reconstruction kernel (B31f) to a slice thickness of 5 mm (increment 2–4 mm). PET emission data was corrected for decay, randoms, and scatter. PET image reconstruction was performed applying an iterative 3-dimensional ordered-subset expectation maximization (OSEM) algorithm (3 iterations; 24 subsets) with gaussian filtering to a transaxial resolution of 5 mm at full width half maximum (FWHM). The matrix and the pixel size were 200 × 200 and 3.0 mm, respectively. Attenuation correction was performed using the low-dose CT data.
Three physicians with long-time experience in PSMA-targeted PET/CT (S.E., F.K., and F.R.) visually identified suspicious lesions taking into account all four imaging time points (1 h, 24 h, 48 h, and 72 h p.i.).

[2] = Radiation dosimetry of [^89Zr]Zr-PSMA-617 (QDOSE / IDAC 2.1); format: in vivo, human (patients); design: TIAC (time-integrated activity coefficient): unit not given here
Protocol: as §1
Mean absorbed radiation doses were estimated using the QDOSE program package (ABX-CRO, Dresden, Germany) considering the following organs as source organs: kidneys, liver, spleen, salivary glands (parotid gland and submandibular gland), and lacrimal gland. As a first step, volumetric co-registration of the different time points was performed by taking the first CT scan as reference. PET images, which were coupled to the CT images of the respective imaging session, were transformed according to the CT transformation matrix. Boundary VOIs which solely enclosed the source organs without interfering with the activity concentration of neighboring structures were manually drawn in the PET image that allowed the best organ delineation and then copied onto all other time-point scans. Manual adjustment of the boundary VOI for each time point was done when necessary, using the respective CT. Volume and activity estimation were performed within the boundary applying a fuzzy locally adaptive Bayesian (FLAB) segmentation algorithm for automatic volume delineation. The next step comprised mono-exponential regression of the serial measured activities using weighted least squares method and estimation of both, the time integrated activities (TIA) and the time-integrated activity coefficients (TIAC) in the source regions. As an approximation, a linear increase from t = 0 to the first acquisition time point was assumed, and the integration method for the first time interval was based on the trapezoidal method. Between the first and the last time point, a trapezoidal integration was used, whereas the TIA from the last time-point to infinity was calculated analytically by applying the mono-exponential fitting curve. The respective TIACs (often termed residence time) of the source organs were calculated by normalizing the TIA to the amount of activity administered. The total body TIA was calculated approximately using the total FOV volume of interest and the injected activity. As a further approximation, constant activity between t = 0 and the first acquisition time point was assumed, and the integration method for the first-time interval was based on the trapezoidal method. Between the first time point and infinity, the TIA was calculated analytically by using the mono-exponential fitting curve. Estimations of absorbed organ dose and effective dose were performed by the IDAC 2.1 software which is implemented in QDOSE [25–27]. The IDAC reference man was applied for the kidneys, the spleen, the liver, the heart and the intestine, and the sphere model for the salivary and lacrimal glands. […]

[3] = of the 11 lesions not visible at 1 h p.i.

O=C([O-])CN1CCN(CC(=O)[O-])CCN(CC(=O)NCC2CCC(C(=O)NC(Cc3ccc4ccccc4c3)C(=O)NCCCCC(NC(=O)NC(CCC(=O)O)C(=O)O)C(=O)O)CC2)CCN(CC(=O)[O-])CC1.[89Zr+4] (stereo not drawn) [[^89Zr]Zr-PSMA-617]
Patients whose undetermined [^68Ga]Ga-PSMA-11 findings were confirmed ([1]; 3 patients with undetermined findings in [^68Ga]Ga-PSMA-11 PET/CT): 2 of 3
Detectability of tumor lesions at late time points ([1]; 48 h p.i. and 72 h p.i.): All tumor lesions were detectable
Findings on [^89Zr]Zr-PSMA-617 PET/CT ([1]; Pt. no 1, PSA 1.92 ng/ml): Local recurrence
Findings on [^89Zr]Zr-PSMA-617 PET/CT ([1]; Pt. no 2, PSA 1.75 ng/ml): 3 × LNM (no right iliac LNM)
Findings on [^89Zr]Zr-PSMA-617 PET/CT ([1]; Pt. no 3, PSA 0.66 ng/ml): No suspicious findings
Findings on [^89Zr]Zr-PSMA-617 PET/CT ([1]; Pt. no 4, PSA 1.77 ng/ml): Peritoneal metastasis + 4 × LNM
Findings on [^89Zr]Zr-PSMA-617 PET/CT ([1]; Pt. no 5, PSA 0.63 ng/ml): 1 × LNM
Findings on [^89Zr]Zr-PSMA-617 PET/CT ([1]; Pt. no 6, PSA 0.43 ng/ml): Local recurrence (in seminal vesicle bed)
Findings on [^89Zr]Zr-PSMA-617 PET/CT ([1]; Pt. no 7, PSA 0.68 ng/ml): Local recurrence + 2 × LNM
Total number of lesions suggestive for prostate cancer ([1]; all 7 patients, range 1–5 per patient): 14 lesions
Tumor lesions identified at 1 h p.i. (also visible in [^68Ga]Ga-PSMA-11 PET/CT) ([1]; in 3 patients): Three
Patients with at least one prostate cancer lesion detected ([1]; of 7 patients with negative or undetermined [^68Ga]Ga-PSMA-11 PET/CT): 6 patients
Peritoneal metastases among identified lesions ([1]; of n = 14 lesions): 1 lesions
Tumor lesions not visible at 1 h p.i. but delineated at later time points ([1]; of n = 14 lesions): 11 lesions
Local recurrences among identified lesions ([1]; of n = 14 lesions, in 3 patients): 3 lesions
Lymph node metastases among identified lesions ([1]; of n = 14 lesions, in 4 patients): 10 lesions
Tumor lesions first visible at 24 h p.i. [1, 3]: 9 lesions
Tumor lesions first visible at 48 h p.i. [1, 3]: 2 lesions
SUVmax of tumor lesion ([1]; patient no. 1, focal uptake in the prostate bed (local recurrence), 48 h p.i.): 3.68
SUVmax of tumor lesion ([1]; patient no. 4, peritoneal lesion (peritoneal metastasis), 48 h p.i.): 2.87
SUVmax of tumor lesion ([1]; patient no. 6, local recurrence in left seminal vesicle bed, 1 h p.i.): 7.04
SUVmax of tumor lesion ([1]; patient no. 6, local recurrence in left seminal vesicle bed, 24 h p.i.): 21.27
SUVmax of tumor lesion ([1]; patient no. 6, local recurrence in left seminal vesicle bed, 48 h p.i.): 21.09
SUVmax of tumor lesion ([1]; patient no. 6, local recurrence in left seminal vesicle bed, 72 h p.i.): 19.19
SUVmax of tumor lesion ([1]; patient no. 7, pelvic lymph node metastasis, 48 h p.i.): 8.06
Overall effective dose, times higher than PET with [^68Ga]Ga-PSMA-617 or [^68Ga]Ga-PSMA-11 ([2]; 111 MBq vs diagnostic activity of 200 MBq of the 68Ga tracers (ref 29, 30)): 2–3 times
Effective dose ([2]; average of 7 patients, mean ± SD): 0.0913 ± 0.0118 mSv/MBq
Absorbed doses of parotid glands and kidneys, times higher than [^68Ga]Ga-PSMA-617 and [^68Ga]Ga-PSMA-11 ([2]; in absolute numbers, comparators ref 29, 30): 3–4 times
TIAC (time-integrated activity coefficient) ([2]; kidneys, mean ± SD): 1.74 ± 0.44
l (rate constant) ([2]; kidneys, mean ± SD): 0.022 ± 0.002 h⁻¹
A (% injected A0), monoexponential curve-fitting parameter ([2]; kidneys, mean ± SD, n = 7 patients): 3.75 ± 1.24 % injected A0
Absorbed dose ([2]; kidneys, mean ± SD, IDAC 2.1): 0.517 ± 0.125 mGy/MBq
A (% injected A0), monoexponential curve-fitting parameter ([2]; lacrimal gland, mean ± SD): 0.02 ± 0.01 % injected A0
l (rate constant) ([2]; lacrimal gland, mean ± SD): 0.030 ± 0.006 h⁻¹
Absorbed dose ([2]; lacrimal gland, mean ± SD, sphere model): 0.156 ± 0.070 mGy/MBq
A (% injected A0), monoexponential curve-fitting parameter ([2]; liver, mean ± SD): 6.62 ± 1.39 % injected A0
TIAC (time-integrated activity coefficient) ([2]; liver, mean ± SD): 1.54 ± 0.49
l (rate constant) ([2]; liver, mean ± SD): 0.049 ± 0.014 h⁻¹
Absorbed dose ([2]; liver, mean ± SD, IDAC 2.1): 0.158 ± 0.051 mGy/MBq
A (% injected A0), monoexponential curve-fitting parameter ([2]; parotid gland, mean ± SD): 0.70 ± 0.20 % injected A0
TIAC (time-integrated activity coefficient) ([2]; parotid gland, mean ± SD): 0.31 ± 0.10
l (rate constant) ([2]; parotid gland, mean ± SD): 0.031 ± 0.005 h⁻¹
Absorbed dose ([2]; parotid gland, mean ± SD, sphere model): 0.601 ± 0.185 mGy/MBq
A (% injected A0), monoexponential curve-fitting parameter ([2]; spleen, mean ± SD): 1.25 ± 0.70 % injected A0
TIAC (time-integrated activity coefficient) ([2]; spleen, mean ± SD): 0.21 ± 0.12
l (rate constant) ([2]; spleen, mean ± SD): 0.079 ± 0.034 h⁻¹
Absorbed dose ([2]; spleen, mean ± SD, IDAC 2.1): 0.175 ± 0.068 mGy/MBq
A (% injected A0), monoexponential curve-fitting parameter ([2]; submandibular gland, mean ± SD): 0.27 ± 0.09 % injected A0
TIAC (time-integrated activity coefficient) ([2]; submandibular gland, mean ± SD): 0.13 ± 0.04
l (rate constant) ([2]; submandibular gland, mean ± SD): 0.029 ± 0.004 h⁻¹
Absorbed dose ([2]; submandibular gland, mean ± SD, sphere model): 0.468 ± 0.136 mGy/MBq and 0.468 ± 0.185 mGy/MBq
